Where two headings read alike, the source gives them in different places. Blank lines part the entries; values can stand above or below the compound they belong to.
How the values were obtained:
A2A receptor [1] = molecular target: T1, A2A receptor (Homo sapiens, UniProt P29274); assay: Human IL-2 T cell assay (restoration of IL-2 production in CGS-21680-treated CD3+ T cells); format: cell-based; set-up: endogenous in cells; host or cells: human CD3+ T cells isolated from venous blood of healthy volunteers
Text: When T-cells are activated, they produce pro-inflammatory cytokines. When the A2A receptor is activated in T cells, the amount of cytokines produced in response to stimulation of T-cells is reduced.
Venous blood from healthy volunteers, all of whom signed an informed consent approved by the Ethics Committee (FOR-UIC-BV-050-01-01 ICF_HBS_HD Version 5.0), was obtained via ImmuneHealth (Centre Hospitalier Universitaire Tivoli, La Louviere, Belgium). Mononuclear cells were collected by density gradient centrifugation, using SepMate-50 tubes (StemCell Technologies, Grenoble, France) and Lymphoprep (Axis-shield, Oslo, Norway) according to the manufacturer's instructions. CD3+ T cells were isolated by immunomagnetic negative selection, using the EasySep Human T Cell Isolation Kit (StemCell Technologies) as per manufacturer's instructions. CD3+ T cells were stored in heat inactivated foetal bovine serum (hiFBS; Gibco, ThermoFisher Scientific, Merelbeke, Belgium) containing 10% DMSO in liquid nitrogen.
Human purified CD3+ T cells were thawed and washed twice with RPMI1640 medium (with UltraGlutamine; Lonza, Verviers, Belgium) supplemented with 1× non-essential amino acids (Lonza), 2% Pen/Strep (Lonza) and 1 mM Sodium Pyruvate (Gibco) (complete media), containing 10% hiFBS. The cells were suspended either in complete media containing 20% hiFBS or in 100% heat inactivated human serum (hiHS; Sigma-Aldrich, Diegem, Belgium). Cells were activated by adding anti-CD3 and anti-CD28 coated microbeads (Dynabeads human T-activator CD3/CD28; Life Technologies, Paisley, UK), suspended either in complete media containing 20% hiFBS or in 100% hiHS. […] Serial dilutions of the compounds of the present invention were prepared and added to the wells. The cells were placed in a 37° C. humidified tissue culture incubator with 5% CO2 for 72 hours. After 72 hours, supernatants were sampled and IL-2 was quantified using the IL-2 (human) AlphaLISA Biotin-Free Detection Kit (AL333F; Perkin-Elmer, Zaventem, Belgium), according to the manufacturer's instructions.

A2A receptor [2] = molecular target: T1, A2A receptor; assay: Inhibition of cAMP production in HEK cells; format: cell-based; details: HEK-293 cells with A2A receptor
in vitro = details: human, Caco-2, pH 7.4
Caco-2 cells = assay: Permeability and efflux in Caco-2 cells; details: Caco-2 monolayer, 2 μM, 120 minutes, pH 7.4
A2AR = A2AR (Mus musculus, UniProt Q60613); details: for Score (locomotion / immobility): score observed in at least 60-100% of mice for 30 minutes
[3] = IC50 (nM) (5000 nM CGS-21680 as agonist, 50% HSA), restoration of IL-2 production, human CD3+ T cells, anti-CD3/CD28 beads, 5000 nM CGS-21680, 50% HSA, 72 hours
[4] = IC50 (nM) (3 nM NECA as agonist, 0.1% BSA), 3 nM NECA as agonist, 0.1% BSA
[5] = IC50 (nM) (5 nM NECA as agonist, 2% HSA), 5 nM NECA as agonist, 2% HSA
[6] = IC50 (nM) (5 μM Adenosine as agonist, 2.0% HSA), 5 μM Adenosine as agonist, 2.0% HSA
[7] = IC50 (nM) (500 nM CGS-21680 as agonist, 10% FBS), restoration of IL-2 production, human CD3+ T cells, anti-CD3/CD28 beads, 500 nM CGS-21680, 10% FBS, 72 hours
[8] = IC50 (nM) (500 nM CGS-21680 as agonist, 50% HSA), restoration of IL-2 production, human CD3+ T cells, anti-CD3/CD28 beads, 500 nM CGS-21680, 50% HSA, 72 hours

T1 sequence (P29274 whole entry): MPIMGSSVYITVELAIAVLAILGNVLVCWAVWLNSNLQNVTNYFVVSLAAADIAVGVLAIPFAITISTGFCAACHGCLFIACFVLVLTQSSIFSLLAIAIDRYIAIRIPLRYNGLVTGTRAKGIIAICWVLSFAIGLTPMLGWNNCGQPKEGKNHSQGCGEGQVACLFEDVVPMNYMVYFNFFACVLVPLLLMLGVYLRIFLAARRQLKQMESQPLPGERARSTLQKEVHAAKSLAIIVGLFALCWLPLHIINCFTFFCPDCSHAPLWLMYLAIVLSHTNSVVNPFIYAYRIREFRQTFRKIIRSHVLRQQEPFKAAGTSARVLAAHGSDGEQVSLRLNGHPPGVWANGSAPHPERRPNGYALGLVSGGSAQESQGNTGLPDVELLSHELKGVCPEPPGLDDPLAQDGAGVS
Sequence of A2AR (Q60613 whole entry): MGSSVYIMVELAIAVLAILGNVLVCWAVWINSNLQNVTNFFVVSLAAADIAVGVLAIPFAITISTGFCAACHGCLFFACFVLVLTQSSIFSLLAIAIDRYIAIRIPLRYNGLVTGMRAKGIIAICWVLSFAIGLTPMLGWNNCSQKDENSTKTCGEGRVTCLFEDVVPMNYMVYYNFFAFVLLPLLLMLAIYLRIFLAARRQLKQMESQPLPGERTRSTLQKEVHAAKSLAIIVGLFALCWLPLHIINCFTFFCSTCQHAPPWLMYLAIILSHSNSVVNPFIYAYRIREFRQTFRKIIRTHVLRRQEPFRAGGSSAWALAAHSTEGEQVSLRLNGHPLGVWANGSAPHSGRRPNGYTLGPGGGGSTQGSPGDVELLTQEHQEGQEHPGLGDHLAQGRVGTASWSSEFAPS

Structure (SMILES): Nc1nc2c(sc(=O)n2CCN2CCN(c3ccc(OCc4c[nH]nn4)cc3F)CC2)c2nc(-c3ccco3)nn12 [Compound 1, 3-(2-(4-(4-((1H-1,2,3-triazol-4-yl)methoxy)-2-fluorophenyl)-piperazin-1-yl)ethyl)-5-amino-8-(furan-2-yl)thiazolo[5,4-e][1,2,4]triazolo[1,5-c]pyrimidin-2(3H)-one]
IC50 (A2A receptor [1]; [3]): 120 nM | IC50 (A2A receptor [2]; [4]): 0.6 nM | IC50 (A2A receptor [2]; [5]): 9 nM | IC50 (A2A receptor [2]; [6]): 511 nM | efflux ratio at 120 min, 2 μM (in vitro): 48

Structure (SMILES): Nc1nc2c(sc(=O)n2CCN2CCN(c3ccc(OCc4n[nH]c(=O)o4)cc3F)CC2)c2nc(-c3ccco3)nn12 [Compound 2, 5-((4-(4-(2-(5-amino-8-(furan-2-yl)-2-oxothiazolo[5,4-e][1,2,4]triazolo[1,5-c]pyrimidin-3(2H)-yl)ethyl)piperazin-1-yl)-3-fluorophenoxy)methyl)-1,3,4-oxadiazol-2(3H)-one]
IC50 (A2A receptor [1]; [7]): 0.9 nM | IC50 (A2A receptor [1]; [3]): 18 nM | IC50 (A2A receptor [2]; [4]): 0.3 nM | IC50 (A2A receptor [2]; [5]): 17 nM | IC50 (A2A receptor [2]; [6]): 708 nM | efflux ratio at 120 min, 2 μM (in vitro): 28

Structure (SMILES): CNCCNC(=O)c1ccc(N2CCN(CCn3c(=O)sc4c3nc(N)n3nc(-c5ccco5)nc43)CC2)c(F)c1 [Compound 31, 4-(4-(2-(5-amino-8-(furan-2-yl)-2-oxothiazolo[5,4-e][1,2,4]triazolo[1,5-c]pyrimidin-3(2H)-yl)ethyl)piperazin-1-yl)-3-fluoro-N-(2-(methylamino)ethyl)benzamide]
IC50 (A2A receptor [1]): 8.3 nM | IC50 (A2A receptor [1]; [7]): 2.1 nM | IC50 (A2A receptor [1]; [8]): 5.4 nM | IC50 (A2A receptor [1]; [3]): 14 nM | IC50 (A2A receptor [2]; [4]): 0.4 nM | IC50 (A2A receptor [2]; [5]): 1 nM | IC50 (A2A receptor [2]; [6]): 42 nM | efflux ratio at 120 min, 2 μM (in vitro): 28

Structure (SMILES): CN(C)CCNC(=O)c1ccc(N2CCN(CCn3c(=O)sc4c3nc(N)n3nc(-c5ccco5)nc43)CC2)c(F)c1 [Compound 32, 4-(4-(2-(5-amino-8-(furan-2-yl)-2-oxothiazolo[5,4-e][1,2,4]triazolo[1,5-c]pyrimidin-3(2H)-yl)ethyl)piperazin-1-yl)-N-(2-(dimethylamino)ethyl)-3-fluorobenzamide]
IC50 (A2A receptor [1]; [3]): 28 nM | IC50 (A2A receptor [2]; [4]): 4.3 nM | IC50 (A2A receptor [2]; [5]): 7 nM | IC50 (A2A receptor [2]; [6]): 356 nM | efflux ratio at 120 min, 2 μM (in vitro): 329

Structure (SMILES): Nc1nc2c(sc(=O)n2CCN2CCN(c3ccc(OCC(=O)O)cc3F)CC2)c2nc(-c3ccco3)nn12 [Compound 35, 2-(4-(4-(2-(5-amino-8-(furan-2-yl)-2-oxothiazolo[5,4-e][1,2,4]triazolo[1,5-c]pyrimidin-3(2H)-yl)ethyl)piperazin-1-yl)-3-fluorophenoxy)acetic acid]
IC50 (A2A receptor [1]): 3.9 nM | IC50 (A2A receptor [1]; [7]): 0.6 nM | IC50 (A2A receptor [1]; [8]): 0.5 nM | IC50 (A2A receptor [1]; [3]): 84 nM | IC50 (A2A receptor [2]; [4]): 0.7 nM | IC50 (A2A receptor [2]; [5]): 13 nM | IC50 (A2A receptor [2]; [6]): 378 nM | efflux ratio at 120 min, 2 μM (in vitro): 26

Structure (SMILES): CC(C)(Oc1ccc(N2CCN(CCn3c(=O)sc4c3nc(N)n3nc(-c5ccco5)nc43)CC2)c(F)c1)C(=O)O [Compound 39, 2-(4-(4-(2-(5-amino-8-(furan-2-yl)-2-oxothiazolo[5,4-e][1,2,4]triazolo[1,5-c]pyrimidin-3(2H)-yl)ethyl)piperazin-1-yl)-3-fluorophenoxy)-2-methylpropanoic acid]
IC50 (A2A receptor [1]): 5.3 nM | IC50 (A2A receptor [1]; [7]): 1 nM | IC50 (A2A receptor [1]; [8]): 12 nM | IC50 (A2A receptor [1]; [3]): 150 nM | IC50 (A2A receptor [2]; [4]): 0.8 nM | IC50 (A2A receptor [2]; [5]): 15 nM | IC50 (A2A receptor [2]; [6]): 719 nM | efflux ratio at 120 min, 2 μM (in vitro): 110

Structure (SMILES): Nc1nc2c(sc(=O)n2CCN2CCN(c3cc(OCC(=O)O)c(F)cc3F)CC2)c2nc(-c3ccco3)nn12 [Compound 43, 2-(5-(4-(2-(5-amino-8-(furan-2-yl)-2-oxothiazolo[5,4-e][1,2,4]triazolo[1,5-c]pyrimidin-3(2H)-yl)ethyl)piperazin-1-yl)-2,4-difluorophenoxy)acetic acid]
IC50 (A2A receptor [1]; [3]): 51 nM | IC50 (A2A receptor [2]; [4]): 0.2 nM | IC50 (A2A receptor [2]; [5]): 1 nM | IC50 (A2A receptor [2]; [6]): 36 nM | efflux ratio at 120 min, 2 μM (in vitro): 164

Structure (SMILES): Nc1nc2c(sc(=O)n2CCN2CCN(c3ccc(C(=O)O)cc3F)CC2)c2nc(-c3ccco3)nn12 [Compound 44, 4-(4-(2-(5-amino-8-(furan-2-yl)-2-oxothiazolo[5,4-e][1,2,4]triazolo[1,5-c]pyrimidin-3(2H)-yl)ethyl)piperazin-1-yl)-3-fluorobenzoic acid]
IC50 (A2A receptor [1]; [3]): 33 nM | IC50 (A2A receptor [2]; [4]): 0.5 nM | IC50 (A2A receptor [2]; [5]): 11 nM | IC50 (A2A receptor [2]; [6]): 127 nM | efflux ratio at 120 min, 2 μM (in vitro): 69

Structure (SMILES): Nc1nc2c(sc(=O)n2CCN2CCN(c3ccc(OCc4nc[nH]n4)cc3F)CC2)c2nc(-c3ccco3)nn12 [Compound 49, 3-(2-(4-(4-((1H-1,2,4-triazol-3-yl)methoxy)-2-fluorophenyl)piperazin-1-yl)ethyl)-5-amino-8-(furan-2-yl)thiazolo[5,4-e][1,2,4]triazolo[1,5-c]pyrimidin-2(3H)-one]
IC50 (A2A receptor [1]; [3]): 61 nM | IC50 (A2A receptor [2]; [4]): 0.5 nM | IC50 (A2A receptor [2]; [5]): 16 nM | IC50 (A2A receptor [2]; [6]): 465 nM | efflux ratio at 120 min, 2 μM (in vitro): 97

Structure (SMILES): CNCCNC(=O)COc1ccc(N2CCN(CCn3c(=O)sc4c3nc(N)n3nc(-c5ccco5)nc43)CC2)c(F)c1 [Compound 50, 2-(4-(4-(2-(5-amino-8-(furan-2-yl)-2-oxothiazolo[5,4-e][1,2,4]triazolo[1,5-c]pyrimidin-3(2H)-yl)ethyl)piperazin-1-yl)-3-fluorophenoxy)-N-(2-(methylamino)ethyl)acetamide]
IC50 (A2A receptor [1]): 4.3 nM | IC50 (A2A receptor [1]; [7]): 1 nM | IC50 (A2A receptor [1]; [8]): 2.2 nM | IC50 (A2A receptor [1]; [3]): 28 nM | IC50 (A2A receptor [2]; [4]): 0.3 nM | IC50 (A2A receptor [2]; [6]): 13 nM | efflux ratio at 120 min, 2 μM (in vitro): 38

Structure (SMILES): Nc1nc2c(sc(=O)n2CCN2CCN(c3cc(O[C@H]4CNC[C@@H]4F)c(F)cc3F)CC2)c2nc(-c3ccco3)nn12 [Compound 92, 5-amino-3-(2-(4-(2,4-difluoro-5-(((3S,4S)-4-fluoropyrrolidin-3-yl)oxy)phenyl)piperazin-1-yl)ethyl)-8-(furan-2-yl)thiazolo[5,4-e][1,2,4]triazolo[1,5-c]pyrimidin-2(3H)-one]
Efflux ratio (Caco-2 cells): 101 | IC50 (A2A receptor [2]; [4]): 0.7 nM | IC50 (A2A receptor [2]; [6]): 388 nM

Score (locomotion / immobility) (A2AR; 1 mg/kg PO 30 min prior to CGS21680): + | Score (locomotion / immobility) (A2AR; 10 mg/kg PO 30 min prior to CGS21680): 0 | effect on CGS21680 induced immobility (A2AR; P.O. at 10 mg/kg, 30 min prior to CGS21680): inhibited CGS21680 induced immobility
Structure (SMILES): COCCOc1ccc(N2CCN(CCn3ncc4c3nc(N)n3nc(-c5ccco5)nc43)CC2)cc1 [Preladenant]
